Among the data in PubChem BioAssay (NCI) are GI50 and TGI values, retold here.

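Protocol summary: plate cells (96-well), add compound at 5 concentrations, incubate 48 h, interpolate endpoints linearly. GI50: concentration for 50% inhibition of growth. TGI: total growth inhibition.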

What all share (test): inhibition of tumour cell growth, NCI panel, 48 h
In experiment [1] the test system is SNB-75 CNS.
The test system of experiment [2] is MOLT-4 leukemia.
The test system of experiment [3] is SK-OV-3 ovarian.
Experiment [4] deals with UO-31 renal.
Experiment [5] concerns HCT-116 colon.
Experiment [6] has as its system SR leukemia.
Experiment [7] relates to SF-268 CNS.
In experiment [8] the test system is NCI-H226 lung.
Experiment [9] has as its system TK-10 renal.
Experiment [10] deals with HOP-92 NSCLC.

As to `CC1(C)OC(=O)C=C([O-])O1.CC1(C)OC(=O)C=C([O-])O1.CC[O-].CC[O-].[Ti+4]`, the GI50 in experiment [1], in experiment [2], in experiment [3], in experiment [4], in [5] and in experiment [6] was > 100 µM in each case. Also, the GI50 in experiment [7], in experiment [8] and in experiment [9] was > 100 µM in each case. Moreover, the TGI in experiment [1], in [2], in [3], in experiment [4], in experiment [5] and in [6] was > 100 µM each time. In addition, the TGI in experiment [7], in experiment [8] and in experiment [9] was > 100 µM each time.

For the molecule `COc1ccc(Nc2c3ccccc3nc3[nH]c4ccccc4c23)cc1`, the GI50 in [2] is 2.35 µM; in [4] it was 38.9 µM; in experiment [5] it was 4.83 µM; in [6] it was 3.84 µM; in experiment [7], 17.2 µM; in experiment [8] it was 7.65 µM. The GI50 in experiment [9] was 26.7 µM. For the same molecule, the TGI in experiment [2] was > 50 µM; in experiment [4] it was > 50 µM; in experiment [5], 28 µM; in experiment [6] it was > 50 µM; in [7], > 50 µM; in experiment [8], > 50 µM. Also, in experiment [9], the TGI was > 50 µM.

Take `COC(=O)C1=CC2OC1(C)CCC2=O` (stereo unspecified): the TGI in [1], in experiment [2], in experiment [3], in [4], in experiment [5] and in experiment [6] was > 100 µM each time. Besides, the TGI in experiment [7], in [8] and in [9] was > 100 µM each time.

Regarding `O=C1OC(OCC#CCOC2OC(=O)C(Cl)=C2Cl)C(Cl)=C1Cl` (stereo unspecified), the TGI in experiment [1] came out at 28.4 µM; in experiment [2], 6.17 µM; in experiment [4], 24 µM; in experiment [5], 21.8 µM; in [6] it was 4.99 µM; in experiment [7], 46.8 µM. The same molecule came in with a TGI in [9] of 21.8 µM.

`Cc1ccccc1-n1c(C)nc(-c2ccccc2)cc1=O`: the TGI in experiment [1], in experiment [2], in experiment [3], in [4], in experiment [5] and in experiment [7] was > 100 µM in each case. The TGI in [10], in experiment [8] and in experiment [9] was > 100 µM in each case.

As to `COc1ccc(-c2nn(-c3cccc(NC(=O)c4ccc(N5CCOCC5)c(C(F)(F)F)c4)c3)cc2-c2ccncc2)cc1Cl`, the GI50 in [1] is 0.797 µM; in [2], 4.5 µM; in [3], 32.8 µM; in experiment [4] it was 20.8 µM; in [5] it was 3.74 µM; in experiment [6], 1.62 µM. Moreover, the GI50 was 13.3 µM in [7], 21.3 µM in [8] and > 50 µM in [9]. Besides, the TGI was 4.95 µM in [1]; > 50 µM in experiment [2]; > 50 µM in experiment [3]; > 50 µM in experiment [4]; > 50 µM in [5]; > 50 µM in experiment [6]. The TGI in [7], in experiment [8] and in experiment [9] was > 50 µM throughout.

`C/C=C(\C)C(=O)N[C@H]1C(O)C[C@]2(C)C3CC[C@@]4(C)C(CC[C@@H]4C(C)N(C)C)C3CCC2C1O` (stereo partly specified): the GI50 is 10.7 µM in experiment [1]; 4.06 µM in experiment [2]; 16.1 µM in experiment [3]; 2.03 µM in experiment [4]; 2.28 µM in [5]; 2.8 µM in [7]. Moreover, the GI50 is 6.44 µM in experiment [10], 12.1 µM in experiment [8] and 18.1 µM in experiment [9]. For the same molecule, the TGI is 26.6 µM in experiment [1]; 17.2 µM in experiment [2]; 42.4 µM in [3]; 5.73 µM in experiment [4]; 6.39 µM in experiment [5]; 8.94 µM in [7]. Further, the TGI in experiment [10] was 33.4 µM; in experiment [8] it was > 70.2 µM; in experiment [9], 41.5 µM.

As for `O=S(=O)(C/C(=N\O)c1ccccc1)c1ccccc1`, the TGI in experiment [1], in experiment [2], in [3], in experiment [4], in [5] and in experiment [7] was > 100 µM each time. Besides, the TGI in experiment [10], in experiment [8] and in [9] was > 100 µM in each case.

For the molecule `CN(C)C(=S)/N=c1\ss/c(=N\S(=O)(=O)c2ccccc2)n1N(C)C`, the TGI in experiment [1], in experiment [2], in experiment [3], in experiment [4], in experiment [5] and in [6] was > 100 µM in each case. Besides, the TGI in experiment [7], in experiment [8] and in experiment [9] was > 100 µM in each case.

Take `CCC(Oc1ccc(OC)c2ccccc(=O)c12)C(=O)O` (stereo unspecified): the TGI in experiment [1], in [2], in [3], in experiment [4], in [5] and in experiment [6] was > 100 µM each time. For the same molecule, the TGI in [7], in experiment [8] and in experiment [9] was > 100 µM throughout.

As for `Cc1cccc(C(C)(C)C)c1NC(=O)CC1Sc2ccccc2NC1=O` (stereo unspecified), the TGI is > 100 µM in experiment [1]; > 100 µM in experiment [2]; > 100 µM in [3]; > 100 µM in [4]; 45.1 µM in experiment [5]; > 100 µM in [7]. Also, the values for the TGI in [10], in experiment [8] and in experiment [9] were 80 µM, > 100 µM and > 100 µM, respectively.

`Clc1nc(Cl)c2ncn(Cc3ccc(Cn4cnc5c(Cl)nc(Cl)nc54)cc3)c2n1`: the TGI in [1] is 37.6 µM; in [2], 16.1 µM; in experiment [3], > 100 µM; in [4], 20.1 µM; in experiment [5], 16.2 µM; in experiment [6], 8.08 µM. Moreover, the TGI turned out to be 23.4 µM in experiment [7], 51.6 µM in experiment [8] and 35.2 µM in experiment [9]. Besides, the GI50 in experiment [2] is 3.88 µM; in [3] it was > 100 µM; in experiment [4] it was 5.01 µM; in experiment [5], 0.852 µM; in experiment [6], 0.287 µM; in [7] it was 3.4 µM. Moreover, the values for the GI50 in [8] and in experiment [9] were 11.2 µM and 15.6 µM, respectively.

Turning to `COc1cc(Cl)cc(-c2nn(-c3cccc(NC(=O)Nc4ccc(Cl)c(C(F)(F)F)c4)c3)cc2-c2ccncc2)c1`, the GI50 in [1] is 1.77 µM; in experiment [2], 1.23 µM; in experiment [3], 3.15 µM; in [4] it was 1.66 µM; in [5] it was 0.631 µM; in [6], 1.08 µM. Also, the GI50 in [7] was 2.66 µM; in experiment [8], 2.5 µM. The TGI in experiment [1] worked out at 11.1 µM; in [2], 4.65 µM; in experiment [3], 9.85 µM; in [4] it was 10.9 µM; in [5], 2.36 µM; in experiment [6], 4.38 µM. Also, the TGI turned out to be 12.1 µM in experiment [7] and 14.7 µM in experiment [8].

Regarding `C=CCCCc1ccc(C(O)CCCCCCCCCCCC)o1` (stereo unspecified), the GI50 is 15.5 µM in experiment [1]; 19.6 µM in experiment [2]; 16.4 µM in [3]; 16.3 µM in experiment [4]; 15.5 µM in experiment [5]; 16.1 µM in [7]. For the same molecule, the GI50 is 15.4 µM in [10], 17.8 µM in [8] and 21 µM in experiment [9]. The TGI in experiment [1] came to 32 µM; in [2], 58.8 µM; in experiment [3] it was 37.2 µM; in experiment [4], 30.3 µM; in experiment [5] it was 28.9 µM; in experiment [7], 35 µM. In addition, the TGI in experiment [10] is 31.9 µM; in [8], 34.3 µM; in [9], 38.3 µM.

For `Cc1cccc2nc3cccc(C(=O)NCCN(C)C)c3nc12`, the TGI in experiment [1] is 3.04 µM; in experiment [2] it was > 100 µM; in experiment [3], 6.74 µM; in experiment [4], 1.56 µM; in experiment [5], 10.8 µM; in experiment [7], 9.2 µM. Also, the TGI in experiment [10] stood at 4.12 µM; in [8], 4.17 µM; in experiment [9], 5.84 µM.

With `CC1=CC(=O)N(c2c(C)cccc2Cl)C(C)N1` (stereo unspecified), the TGI in [1], in experiment [2], in [3], in [4], in experiment [5] and in experiment [7] was > 100 µM each time. Also, the TGI in experiment [10], in [8] and in experiment [9] was > 100 µM in each case.

On to `CN1CC(=O)N(C)c2nc[nH]c2C1=O`, for which the TGI in experiment [1], in experiment [2], in [3], in experiment [4], in experiment [6] and in [7] was > 100 µM throughout. The TGI in [8] and in [9] was > 100 µM throughout.
